{
  "source": "paper PMC12458545",
  "about": "“Repurposing a Detrimental Antibody Epitope as Targeted Therapeutics for Sepsis and Rheumatoid Arthritis” (Research Square, 2025)",
  "key": {"[1]": {"tested_on": "sepsis-induced systemic cytokines and chemokines", "test": "serum cytokines/chemokines in CLP sepsis, Cytokine Antibody Arrays", "type": "in vivo, Balb/C mice", "conditions": "P2–1 0.1 or 1.0 mg/kg i.p. at 2 h and 20 h post-CLP; blood at 24 h", "description": "Experimental sepsis was induced in Balb/C mice via cecal ligation and puncture (CLP) as previously described,[30],[37]. […] Briefly, mice were anesthetized intramuscularly with ketamine (75 mg/kg, Henry Schein Animal Health, Dublin, Ohio) and xylazine (10 mg/kg, Sigma-Aldrich) before a midline abdominal incision was made in the lower left abdomen. The cecum was ligated with a 4–0 silk suture at 50% of its length from the distal end, and punctured twice with a 21-gauge needle to induce moderate to severe sepsis. The cecum was returned to the abdominal cavity, and the incision was closed in layers. Approximately 30 min post-CLP, animals received imipenem/cilastatin (0.5 mg/mouse, Primaxin, Merck & Co., Inc.) and 1.0 mL of sterile saline for fluid resuscitation. Animals were randomized to control vehicle and experimental groups, administered P2 or P2–1 intraperitoneally at indicated doses and time points, and monitored for survival rates. To elucidate P2–1’s protective mechanisms, a separate group of Balb/C mice underwent CLP and received P2–1 (1.0 mg/kg) at 2 h and 20 h post-CLP. At 24 h post-CLP, animals were euthanized to collect blood and measure serum cytokines and chemokines using murine Cytokine Antibody Arrays.\n(§1) Levels of cytokines and chemokines in mouse serum and joint tissue lysates, or human PBMC culture supernatants were determined using murine or human Cytokine Antibody Arrays (e.g., Cat. No. M0308003 or Cat. No. AAH-CYT-3–4, RayBiotech Inc., Norcross, GA, USA) as previously described,[30],[86],[87]. Serum samples were collected from mice at 24 h post-CLP. The soft tissue of the hindpaw and ankle joints was carefully collected using a previously described protocol. Briefly, 0.5 g of fresh soft tissue was cut into 3 mm pieces, and mixed with 400 μL of a hypertonic solution (500 mL PBS with 4.5 g NaCl and 2× protease inhibitor cocktail) in a 10 mL syringe. Mechanical extrusion, involving 30 rapid back-and-forth movements of the plunger, was then performed. The expelled extracellular fluid was collected, immediately aliquoted, and stored at −20°C until analysis. Cell-conditioned medium was collected from PBMC cultures after 16 h of stimulation. Arrays were performed according to the manufacturer’s protocol, followed by chemiluminescent detection and densitometric quantification as previously described,[30]."}, "human PBMCs [2]": {"tested_on": "human PBMCs", "test": "RNA-seq of HMGB1-stimulated PBMCs", "type": "cell-based", "conditions": "for other HMGB1-induced gene expression (cytokines, chemokines) (words): P2–1 5.0 or 10.0 μg/ml with HMGB1", "description": "(§2) Human blood was purchased from the New York Blood Center (Long Island City, NY, USA), and PBMCs were isolated by density gradient centrifugation through Ficoll (Ficoll-Paque PLUS) as previously described,[30]. PBMCs were cultured in RPMI-1640 supplemented with 10% human serum, 2 mM L-glutamine, 100 U/mL penicillin, and 100 μg/mL streptomycin (all from Invitrogen). For experiments, PBMCs were stimulated with recombinant human HMGB1 (0.5 or 2.0 μg/ml) for 16 hours, either alone or in combination with P2–1 at 5.0 or 10.0 μg/ml. Cell-free supernatants were collected for analysis of cytokines/chemokines levels by Cytokine Antibody Arrays, or pCTS-L levels by Western blotting analysis as described.\nTotal RNA was isolated from human PBMCs stimulated with HMGB1 in the absence or presence of P2–1 (5.0 or 10.0 μg/ml) using the RNeasy Mini Kit (Qiagen) according to the manufacturer’s instructions. RNA quantity and quality were assessed using a NanoDrop spectrophotometer and an Agilent Bioanalyzer. cDNA libraries were prepared using the TruSeq RNA Library Prep Kit v2 (Illumina) and sequenced on an Illumina NovaSeq 6000 platform to generate 100 bp paired-end reads. Raw sequencing reads were quality-checked using FastQC, trimmed with Trimmomatic, and aligned to the human reference genome (GRCh38) using HISAT2. Gene counts were quantified using StringTie and DESeq2 was used for differential gene expression analysis. Volcano plots and heatmaps were generated using ggplot2 and pheatmap packages in R, respectively. Genes with an adjusted P-value < 0.05 and a |log2-fold change| > 1 were considered differentially expressed."}, "Recombinant human HMGB1": {"target": "T1, Recombinant human HMGB1 (Homo sapiens, UniProt P09429)", "T1 construct": "made in house; host or cells: E. coli BL21 (DE3) pLysS", "T1 sequence (P09429 1-215)": "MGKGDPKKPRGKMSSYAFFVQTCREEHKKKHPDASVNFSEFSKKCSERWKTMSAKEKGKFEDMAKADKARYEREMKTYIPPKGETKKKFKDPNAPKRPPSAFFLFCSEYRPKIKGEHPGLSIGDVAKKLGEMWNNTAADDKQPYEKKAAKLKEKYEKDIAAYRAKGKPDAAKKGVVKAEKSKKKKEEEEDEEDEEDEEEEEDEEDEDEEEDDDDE", "test": "SPR (OpenSPR) binding to immobilized HMGB1", "conditions": "immobilized HMGB1, HBS-P buffer; Fig. 5A; Mean ± SEM, n = 2 independent experiments", "description": "Binding kinetics between HMGB1 and P2–1 were measured using Nicoya Life Science gold nanoparticle-based OpenSPR technology (Kitchener, ON, Canada) as previously described,[84]. Recombinant human HMGB1 was immobilized onto a Carboxyl sensor chip, and P2–1 peptide was flowed over immobilized HMGB1 at various concentrations in HBS-P buffer (GE Healthcare). Response units were recorded over time, and binding affinity was estimated as the equilibrium dissociation constant KD using Trace Drawer Kinetic Data Analysis v.1.6.1 (Nicoya Life Science)."}, "human PBMCs [3]": {"tested_on": "human PBMCs", "test": "HMGB1-induced cytokine/chemokine secretion, Cytokine Antibody Arrays", "type": "cell-based", "conditions": "P2–1 5 or 10 μg/ml, HMGB1 0.5 or 2.0 μg/ml, 16 h", "description": "as §2, §1"}},
  "note": "“Also recorded” adds a separate entry of the source.",
  "data": [
    {"substance": "54-TKVH(Nle)KSFLAFQTKT-69 [P2–1, water-soluble derivative of TN peptide P2 with Met to Norleucine and Cys to Ser substitutions]", "values": [
      {"measurement": "sepsis-induced systemic inflammation", "setting": "[1]", "value": "significantly attenuated"},
      {"measurement": "serum BLC/CXCL13", "setting": "[1]", "value": "significantly reduced"},
      {"measurement": "serum G-CSF", "setting": "[1]", "value": "significantly reduced"},
      {"measurement": "serum IL-6", "setting": "[1]", "value": "significantly reduced"},
      {"measurement": "serum KC/GRO-α/CXCL1", "setting": "[1]", "value": "significantly reduced"},
      {"measurement": "serum MCP-1/CCL2", "setting": "[1]", "value": "significantly reduced"},
      {"measurement": "serum MIP-1γ/CCL9/10", "setting": "[1]", "value": "significantly reduced"},
      {"measurement": "serum MIP-2/GRO-β/CXCL3", "setting": "[1]", "value": "significantly reduced"},
      {"measurement": "serum sTNFRI", "setting": "[1]", "value": "significantly reduced"},
      {"measurement": "Ctsl mRNA upregulation (fold)", "setting": "human PBMCs [2]; HMGB1 + P2–1 group, three independent donors, mean ± SEM", "value": "2.4 ± 0.1", "unit": "fold"},
      {"measurement": "HMGB1-induced Ctsl mRNA upregulation", "setting": "human PBMCs [2]; P2–1 5.0 or 10.0 μg/ml", "value": "moderately but significantly reduced HMGB1-induced Ctsl mRNA upregulation"},
      {"measurement": "other HMGB1-induced gene expression (cytokines, chemokines) (words)", "setting": "human PBMCs [2]", "value": "did not broadly reverse HMGB1-induced transcriptional changes for most genes; also recorded: not significantly affecting the expression of other HMGB1-induced cytokines and chemokines"},
      {"measurement": "other HMGB1-induced gene expression (cytokines, chemokines) (words)", "setting": "human PBMCs [2]; listed as P2-1", "value": "does not induce"},
      {"measurement": "Kd", "setting": "Recombinant human HMGB1", "value": "24.1 ± 9.35", "unit": "nM"},
      {"measurement": "HMGB1-induced cytokine/chemokine secretion (words)", "setting": "human PBMCs [3]", "value": "did not affect the secretion of these HMGB1-induced cytokines and chemokines; also recorded: did not broadly inhibit the secretion of these HMGB1-induced cytokines and chemokines"},
      {"measurement": "HMGB1-induced cytokine/chemokine secretion (words)", "setting": "human PBMCs [3]; listed as P2-1", "value": "does not broadly inhibit"}
    ]}
  ]
}
